Data as given in PubChem BioAssay AID1508591.

Details: rat; liver microsomes; pH 7.4; 15.0 min; 1.0 µM

**Q.** Which half-life does the source give for `CSc1ccc(C(=O)c2[nH]c(=O)[nH]c2C)cc1` here?
**A.** > 30 min

**Q.** With `COc1ccc(CN(C2CCCCC2C)S(=O)(=O)c2ccc(S(=O)(=O)N(C)C)cc2)cc1OC` (stereo not given) as the molecule, how does the half-life read?
**A.** 1.6 min

**Q.** For `O=C(Nc1cccc(C(F)(F)F)c1)c1cc2nc(-c3ccccc3)cc(C(F)(F)F)n2n1`, which half-life is on record?
**A.** > 30 min

**Q.** Which half-life does the source give for `Cc1cc(-c2nnc3n2CCCCC3)c(C)n1-c1ccc(Br)cc1` here?
**A.** 2.2 min

**Q.** Which half-life does the source give for `O=C(Nc1ccc(Cl)cc1)Nc1ccc(Cl)c(Cl)c1` here?
**A.** > 30 min

**Q.** For `Fc1ccc(-c2csc3ncnc(NCc4ccc5c(c4)OCO5)c23)cc1`, which half-life is on record?
**A.** 19.2 min

**Q.** For `CCCCc1ccc(NC(=O)c2ccc3c(c2)N(S(C)(=O)=O)CC3)cc1`, which half-life is on record?
**A.** 4.38 min

**Q.** Which half-life does the source give for `Cc1cnc(-c2ccccc2C2COC2)nc1NCC1CCN(c2cccnc2)CC1` here?
**A.** > 30 min

**Q.** Which half-life does the source give for `CN1CCN(Cc2ccc(NC(=O)Cc3ccc(Oc4cc(NC(=O)C5CC5)ncn4)cc3)cc2C(F)(F)F)CC1` here?
**A.** > 30 min

**Q.** Which half-life does the source give for `COc1ccc(CN2CCc3nc(N4CCN(c5ccc(F)cc5)CC4)ncc3C2)c(OC)c1OC` here?
**A.** 1.65 min

**Q.** For `O=C(c1cccc(F)c1)N1CCC2(CCN(Cc3cc(C(F)(F)F)cc(C(F)(F)F)c3)CC2)CC1`, which half-life is on record?
**A.** > 30 min

**Q.** With `CCc1ccccc1C(=O)N1CCc2cc(-c3nc(NC(=O)Cc4ccc5c(c4)OCO5)sc3C)ccc21` as the molecule, how does the half-life read?
**A.** 7.2 min

**Q.** Which half-life does the source give for `Ic1ccccc1CNC1C2CCN(CC2)C1C(c1ccccc1)c1ccccc1` (stereo not given) here?
**A.** 8.51 min

**Q.** Which half-life does the source give for `Clc1ccc(C2(c3ccc(-c4cn[nH]c4)cc3)CCNCC2)cc1` here?
**A.** > 30 min

**Q.** Which half-life does the source give for `COc1ccc(CCN2CCC(Nc3nc4ccccc4n3Cc3ccc(F)cc3)CC2)cc1` here?
**A.** 4.18 min

**Q.** With `Cc1cccc(C)c1Nc1c(-c2cccs2)nc2ncccn12` as the molecule, how does the half-life read?
**A.** 3.72 min

**Q.** For `O=[N+]([O-])c1ccc(-c2nc(Nc3ccc(F)c(F)c3)c3ccccc3n2)cc1`, which half-life is on record?
**A.** > 30 min

**Q.** For `CCCCCCCc1c(C)nc(N2CCOCC2)[nH]c1=O`, which half-life is on record?
**A.** 3.5 min

**Q.** With `CNc1oc(-c2cccc(Cl)c2Cl)nc1C#N` as the molecule, how does the half-life read?
**A.** 9.65 min

**Q.** With `COC(=O)c1ccc(NS(=O)(=O)c2c(C)nc3sccn3c2=O)cc1` as the molecule, how does the half-life read?
**A.** 3.88 min

**Q.** With `Cc1ccc(S(=O)(=O)Nc2ccccc2C(=O)Nc2nc(-c3ccccc3)c(C)s2)cc1` as the molecule, how does the half-life read?
**A.** 6.3 min

**Q.** With `O=[S+]([O-])(Nc1ccccc1)c1ccc(NCc2cccc(C(F)(F)F)c2Cl)cc1` as the molecule, how does the half-life read?
**A.** 13 min

**Q.** For `FC(F)(F)c1ccc(CN2CCNc3cc(Nc4ccccc4)ncc3C2)cc1`, which half-life is on record?
**A.** 17.3 min

**Q.** Which half-life does the source give for `COc1cccc(C(=O)Nc2nc(-c3nnn(-c4ccccc4C(F)(F)F)c3C)ns2)c1` here?
**A.** > 30 min

**Q.** For `Fc1cnc(-c2ccccc2C(F)F)nc1NCc1ccc(-c2ccn[nH]2)cc1`, which half-life is on record?
**A.** 10 min

**Q.** For `COc1ccnc(NC(=S)N2CCN(c3ccc(Cl)c(Cl)c3)CC2)c1`, which half-life is on record?
**A.** 20 min

**Q.** With `COc1cc(OC)c2c(=O)[nH]c(-c3cc(C)c(OCCO)c(C)c3)nc2c1` as the molecule, how does the half-life read?
**A.** > 30 min

**Q.** With `COC(=O)c1ccnc(-c2cc(C(=O)Nc3ccc(C4(N)CC4)cc3)ccn2)c1` as the molecule, how does the half-life read?
**A.** > 30 min

**Q.** For `CC(C)(C)n1nc(-c2ccc(Cl)cc2)c2c(N)ncnc21`, which half-life is on record?
**A.** > 30 min

**Q.** Which half-life does the source give for `N#Cc1cccc(-c2csc(N3CCC(C(N)=O)CC3)n2)c1` here?
**A.** 1.74 min

**Q.** Which half-life does the source give for `CCOC(=O)[C@H]1O[C@H]1C(=O)N[C@@H](CC(C)C)C(=O)NCCC(C)C` here?
**A.** 1.48 min

**Q.** With `CCOC(=O)c1nn(-c2ccc(OC)cc2)c(=O)c2c(N)scc12` as the molecule, how does the half-life read?
**A.** 9.52 min

**Q.** Which half-life does the source give for `COc1cccc(CNc2ccc(S(=O)(=O)Nc3nc(C)c(C)s3)cc2)c1O` here?
**A.** 12 min

**Q.** Which half-life does the source give for `CCCCCCN(CCCCCC)C(=O)Cc1c(-c2ccc(F)cc2)[nH]c2ccccc12` here?
**A.** 2.5 min

**Q.** With `Clc1ccccc1-c1nc(NCc2ccc(-c3cccnc3)cc2)c2ccccc2n1` as the molecule, how does the half-life read?
**A.** 6.99 min

**Q.** With `Cc1cc(-c2nnc3n2CCCCC3)c(C)n1-c1ccccc1` as the molecule, how does the half-life read?
**A.** 3.27 min

**Q.** With `N=c1c2ccccc2nnn1-c1ccc(C(F)(F)F)cc1` as the molecule, how does the half-life read?
**A.** > 30 min

**Q.** For `CC(=O)c1c(C)[nH]c(C(=O)Nc2cccc(S(=O)(=O)Nc3ccc(Br)c(F)c3)c2)c1C`, which half-life is on record?
**A.** 17 min

**Q.** For `COc1ccc(C)cc1-n1nnnc1Sc1ncnc2scc(-c3ccc(Br)cc3)c12`, which half-life is on record?
**A.** 2.1 min

**Q.** Which half-life does the source give for `Nc1nc2c(s1)C(c1ccccc1OCc1ccccc1Cl)CC(=O)N2` (stereo not given) here?
**A.** 6.28 min

**Q.** With `Cc1ccc(NS(=O)(=O)c2cccc(C(=O)Nc3nc(-c4ccccc4)cs3)c2)cc1` as the molecule, how does the half-life read?
**A.** 6.7 min

**Q.** For `COc1cccc(CNC(=O)c2c(OC)cc(=O)n3c2CCN(C(=O)c2ccc(C)cc2C)CC3)c1`, which half-life is on record?
**A.** 5.9 min

**Q.** With `CCN(CC)C(=O)c1sc2c(c1C)c(=O)n(Cc1ccccc1)c(=O)n2CC(=O)Nc1ccc(OC)cc1` as the molecule, how does the half-life read?
**A.** 5.16 min

**Q.** Which half-life does the source give for `Cc1cccc2nc(NC3=NC(c4[nH]ncc4Cl)C4=C(CCCC4=O)N3)oc12` (stereo not given) here?
**A.** 1.6 min

**Q.** With `COc1ccc(C(=O)N[C@@H]2CCC[C@@H]2C(=O)N2CCC(Cc3ccccc3)CC2)cc1` as the molecule, how does the half-life read?
**A.** 2.66 min

**Q.** Which half-life does the source give for `Cc1ccc(NC(=O)C(Cc2ccccc2)NS(=O)(=O)c2cccs2)cc1Cl` (stereo not given) here?
**A.** 1.12 min

**Q.** For `CN1Cc2c(cc(N3CCOCC3)nc2-c2ccccc2OC(F)(F)F)C1=O`, which half-life is on record?
**A.** > 30 min

**Q.** Which half-life does the source give for `CN1CCN(c2ccc(-c3cccc(CN4CCOCC4)c3)cc2NC(=O)c2c[nH]c(=O)cc2C(F)(F)F)CC1` here?
**A.** > 30 min

**Q.** For `O=C(NCc1ccccc1)c1nc(S(=O)(=O)Cc2ccc(F)cc2)ncc1Cl`, which half-life is on record?
**A.** 1.98 min

**Q.** Which half-life does the source give for `COc1cccc(CN(C)c2ccc([S+](=O)([O-])Nc3nccs3)cc2)c1O` here?
**A.** > 30 min

**Q.** For `CCN1CCCC1CNC(=O)c1cc(S(=O)(=O)CC)c(N)cc1OC` (stereo not given), which half-life is on record?
**A.** > 30 min

**Q.** Which half-life does the source give for `CCCc1ccc(-c2csc(NC(=O)c3ccncc3NS(=O)(=O)c3ccc(C)cc3)n2)cc1` here?
**A.** 3.3 min

**Q.** With `COc1ccc(-c2cc(C(F)(F)F)nc(SCCC(=O)Nc3cc(C)ccc3O)n2)cc1` as the molecule, how does the half-life read?
**A.** 14.9 min

**Q.** With `CS(=O)(=O)c1ccc(-c2cnc(NCc3ccco3)n3cnnc23)cc1` as the molecule, how does the half-life read?
**A.** > 30 min

**Q.** Which half-life does the source give for `CN1C(=O)CN=C(c2ccc[nH]2)c2cc(Cl)ccc21` here?
**A.** 16 min

**Q.** For `O=C(Nc1ncc(Cc2ccc(C(F)(F)F)cc2)s1)c1cn(-c2ccccc2)cn1`, which half-life is on record?
**A.** > 30 min

**Q.** Which half-life does the source give for `COc1ccc(-c2cc(-c3cccc4[nH]ncc34)cn3cncc23)cn1` here?
**A.** 9.28 min

**Q.** With `Brc1ccc(-c2csc(N3CCC(c4nn[nH]n4)CC3)n2)cc1` as the molecule, how does the half-life read?
**A.** > 30 min

**Q.** Which half-life does the source give for `COc1nccc(-c2nc(Nc3ccc(F)c(F)c3)c3ccccc3n2)c1OC` here?
**A.** 26 min

**Q.** With `Cc1cc(-c2nnc3n2CCCCC3)c(C)n1-c1ccc(Cl)c(Cl)c1` as the molecule, how does the half-life read?
**A.** 1.9 min

**Q.** Which half-life does the source give for `CCCN1C(CC(C)C)=NS(=O)(=O)c2cc(NC(=O)c3cccs3)ccc21` here?
**A.** 4.56 min

**Q.** Which half-life does the source give for `CC(C)CNc1ccnc(NCc2csc(-c3ccccc3)n2)n1` here?
**A.** 2.07 min

**Q.** For `Oc1ccc(C(=S)N2CCN(c3cccc(Cl)c3)CC2)cc1`, which half-life is on record?
**A.** 1.7 min

**Q.** For `O=C(NCCc1nc2ccccc2n1CCO)C1CCCCC1`, which half-life is on record?
**A.** 20.3 min

**Q.** Which half-life does the source give for `COc1cccc(Nc2nc(-c3ccncc3)nc3ccccc23)c1` here?
**A.** 4.3 min

**Q.** Which half-life does the source give for `CC(C)c1ccccc1-c1ncc(F)c(NCc2ccc(-n3ccnn3)cc2)n1` here?
**A.** 4.4 min

**Q.** For `O=C(Nc1ccc([S+](=O)([O-])Nc2nccs2)cc1)c1ccn[nH]1`, which half-life is on record?
**A.** > 30 min

**Q.** For `Cc1ccc(-c2cc(C(=O)NCc3cnn(C)c3C)c3cc(Br)ccc3n2)cc1`, which half-life is on record?
**A.** 12 min

**Q.** With `Cc1cc(CNC(=O)c2ccc3c(c2)n(CC2CC2)c(=O)n3C2CCCCC2)on1` as the molecule, how does the half-life read?
**A.** 12.4 min

**Q.** For `COc1ccc(OCc2ccc(-c3nc(C#N)c(NC(C)c4ccccc4)o3)o2)cc1` (stereo not given), which half-life is on record?
**A.** 4.14 min

**Q.** Which half-life does the source give for `CCN(CC)CCCC(C)Nc1cc(/C=C/c2ccccc2Cl)nc2cc(Cl)ccc12` (stereo not given) here?
**A.** 7.34 min

**Q.** With `O=C(Nc1nc(-c2ccccc2)cs1)c1ccncc1NS(=O)(=O)c1ccc(F)c(F)c1` as the molecule, how does the half-life read?
**A.** 11 min

**Q.** Which half-life does the source give for `c1ccc(Nc2cc(-c3ccoc3)ncn2)cc1` here?
**A.** 8.6 min

**Q.** Which half-life does the source give for `O=C(NC[C@H]1Cn2c(-c3ccc(Cl)cc3)cnc2CO1)C1CCCC1` here?
**A.** > 30 min

**Q.** With `CNC(=O)c1ccc(-c2cnc3cnc(C(=O)N(C)c4ccc(Cl)cc4)cn23)cc1` as the molecule, how does the half-life read?
**A.** > 30 min
